Laboratory results from patent US20250282736A1, “SMALL MOLECULE MODULATORS OF HUMAN PREGNANE X RECEPTOR” (ST. JUDE CHILDREN'S RESEARCH HOSPITAL, priority 2022, published 2025).

How the values were obtained:
hPXR [1] = target: T1, hPXR (Homo sapiens (Human), UniProt O75469); test: hPXR binding assay; conditions: for inhibition at 10 µM: read-out: Binding (% inhibition at 10 μM)
hPXR [2] = target: T1, hPXR; test: cell-based hPXR antagonistic assay; conditions: for inhibition at 10 µM: read-out: Antagonist (% inhibition at 10 μM)
hPXR [3] = target: T1, hPXR; test: cell-based hPXR inverse agonistic assay; conditions: for inhibition at 10 µM: read-out: Inverse agonist (% inhibition at 10 μM)
hPXR [4] = target: T1, hPXR; test: cell-based hPXR agonistic assay; conditions: for Agonist (% activation at 10 μM): rifampicin at 10 μM as 100% activation, DMSO (0.3%) as 0%
[5] = read-out: Binding (IC50/μM), hPXR binding assay

T1 sequence (O75469 whole entry): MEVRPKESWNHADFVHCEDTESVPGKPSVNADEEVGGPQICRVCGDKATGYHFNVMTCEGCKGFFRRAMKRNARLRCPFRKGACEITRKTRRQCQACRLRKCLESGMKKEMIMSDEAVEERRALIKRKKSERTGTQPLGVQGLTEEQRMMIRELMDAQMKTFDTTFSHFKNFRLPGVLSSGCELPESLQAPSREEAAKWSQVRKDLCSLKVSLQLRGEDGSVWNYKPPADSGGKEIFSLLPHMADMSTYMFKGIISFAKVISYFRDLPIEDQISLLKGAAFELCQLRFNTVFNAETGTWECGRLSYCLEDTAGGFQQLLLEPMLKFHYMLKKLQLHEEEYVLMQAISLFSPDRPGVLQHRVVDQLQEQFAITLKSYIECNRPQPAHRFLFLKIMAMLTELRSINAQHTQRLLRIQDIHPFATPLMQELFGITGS

Row | SMILES | inhibition at 10 µM (hPXR [1]) | IC50 (hPXR [1]; [5]) | IC50 (hPXR [2]) | inhibition at 10 µM (hPXR [2]) | IC50 (hPXR [3]) | inhibition at 10 µM (hPXR [3]) | EC50 (hPXR [4]) | IC50 (hPXR [1]) | Agonist (% activation at 10 μM) (hPXR [4])
1 | COCCOCCOCCOCCOc1cc(NC(=O)c2nnn(-c3cc(OC)ccc3OC)c2C)cc(C(C)(C)C)c1 [D27] | 70% | 1 ± 0.08 µM | 2140 ± 360 nM | 92% | 1140 ± 580 nM | 91% | > 30000 nM |  | 
2 | COC(=O)CCCOc1cc(NC(=O)c2nnn(-c3cc(OC)ccc3OC)c2C)cc(C(C)(C)C)c1 [D29] | 25% | 0.31 ± 0.17 µM | 1090 ± 300 nM | 107% | 310 nM | 105% | > 30000 nM |  | 
3 | COc1ccc(OC)c(-n2nnc(C(=O)Nc3cc(OCCCC(=O)O)cc(C(C)(C)C)c3)c2C)c1 [D30] | 71% | 1.71 ± 0.33 µM | 920 ± 120 nM | 104% | 190 nM | 118% | > 30000 nM |  | 
4 | COc1ccc(OC)c(-n2nnc(C(=O)Nc3cc(OCC(=O)OC(C)(C)C)cc(C(C)(C)C)c3)c2C)c1 [D31, tert-butyl 2-(3-(tert-butyl)-5-(1-(2,5-dimethoxyphenyl)-5-methyl-1H-1,2,3-triazole-4-carboxamido)phenoxy)acetate] | 73% | 0.16 µM | 430 nM | 105% | 100 nM | 126% | > 30000 nM |  | 
5 | COc1ccc(OC)c(-n2nnc(C(=O)Nc3cc(OCC(=O)O)cc(C(C)(C)C)c3)c2C)c1 [D32] |  |  | > 30000 nM |  | > 30000 nM |  | > 30000 nM | > 30 µM | 
6 | COc1ccc(OC)c(-n2nnc(C(=O)Nc3cc(OCCOCCOCCOCCN)cc(C(C)(C)C)c3)c2C)c1 [D35] |  |  | 19700 ± 7630 nM | 84% | > 30000 nM |  | > 30000 nM | > 30 µM | 
7 | COc1ccc(-n2nnc(C(=O)Nc3cccc(N4CCCC4)c3)c2C)cc1 [E1, 1-(4-methoxyphenyl)-5-methyl-N-(3-(pyrrolidin-1-yl)phenyl)-1H-1,2,3-triazole-4-carboxamide] |  |  | > 30000 nM |  | > 30000 nM |  | 320 ± 100 nM | > 30 µM | (30 ± 7)%
8 | COc1ccc(-n2nnc(C(=O)Nc3ccc(NC(C)=O)c(C(C)(C)C)c3)c2C)cc1 [E2, N-(4-acetamido-3-(tert-butyl)phenyl)-1-(4-methoxyphenyl)-5-methyl-1H-1,2,3-triazole-4-carboxamide] | 54% | 6.94 ± 0.2 µM | > 30000 nM |  | > 30000 nM |  | 5160 ± 1100 nM |  | (24 ± 2)%
9 | COc1ccc(-n2nnc(C(=O)Nc3ccc(N)c(C(C)(C)C)c3)c2C)cc1 [E3, N-(4-amino-3-(tert-butyl)phenyl)-1-(4-methoxyphenyl)-5-methyl-1H-1,2,3-triazole-4-carboxamide] |  |  | > 30000 nM |  | > 30000 nM |  | 860 ± 120 nM | > 30 µM | (29 ± 4)%
10 | COc1ccc(-n2nnc(C(=O)Nc3ccccc3)c2C)cc1 [E4] |  |  | > 30000 nM |  | > 30000 nM |  | > 30000 nM | > 30 µM | 
11 | COc1ccc(-n2nnc(C(=O)Nc3cccc(C(C)(C)C)c3)c2C)cc1 [E5] |  |  | > 30000 nM |  | > 30000 nM |  | 4050 ± 1520 nM | > 30 µM | (41 ± 3)%
12 | COc1ccc(-n2nnc(C(=O)Nc3ccc(C(C)(C)C)cc3)c2C)cc1 [E6] |  |  | > 30000 nM |  | > 30000 nM |  | 1440 ± 270 nM | > 30 µM | (35 ± 3)%
13 | COc1ccc(-n2nnc(C(=O)Nc3ccc(C)cc3)c2C)cc1 [E7] |  |  | > 30000 nM |  | > 30000 nM |  | 790 ± 260 nM | > 30 µM | (29 ± 5)%
14 | COc1ccc(-n2nnc(C(=O)Nc3cccc(C)c3)c2C)cc1 [E8] |  |  | > 30000 nM |  | > 30000 nM |  | > 30000 nM | > 30 µM | 
15 | CCCCOc1ccc(C(C)(C)C)cc1NC(=O)c1nnn(-c2ccc(OC)cc2)c1C [E9] |  |  | > 30000 nM |  | > 30000 nM |  | > 30000 nM | > 30 µM | 
16 | COc1ccc(-n2nnc(C(=O)Nc3cc(C)ccc3OC)c2C)cc1 [E10] | 53% | 1.2 ± 0.3 µM | > 30000 nM |  | > 30000 nM |  | > 30000 nM |  | 

Row | SMILES | inhibition at 10 µM (hPXR [1]) | IC50 (hPXR [1]; [5]) | IC50 (hPXR [2]) | inhibition at 10 µM (hPXR [2]) | IC50 (hPXR [3]) | inhibition at 10 µM (hPXR [3]) | EC50 (hPXR [4]) | IC50 (hPXR [1]) | Agonist (% activation at 10 μM) (hPXR [4])
17 | COc1ccc(Cl)cc1-n1nnc(C(=O)Nc2cc(C(C)(C)C)cc(C(C)(C)C)c2)c1C [F1] | 67% | 0.044 ± 0.016 µM | 240 nM | 102% | 66 ± 14 nM | 93% | > 30000 nM |  | 
18 | COc1ccc(Cl)cc1-n1nnc(C(=O)Nc2cc(N)cc(C(C)(C)C)c2)c1C [F2, N-(3-amino-5-(tert-butyl)phenyl)-1-(5-chloro-2-methoxyphenyl)-5-methyl-1H-1,2,3-triazole-4-carboxamide] | 65% | 7.68 ± 1.45 µM | 18200 ± 11100 nM | 56% | 3620 ± 1740 nM | 101% | > 30000 nM |  | 
19 | CCCCNc1cc(NC(=O)c2nnn(-c3cc(Cl)ccc3OC)c2C)cc(C(C)(C)C)c1 [F3] | 83% | 0.12 µM | 210 nM | 104% | 62 nM | 89% | > 30000 nM |  | 
20 | COc1ccc(Cl)cc1-n1nnc(C(=O)Nc2cc(O)cc(C(C)(C)C)c2)c1C [F4] | 84% | 1.64 µM | 1180 ± 210 nM | 104% | 290 ± 180 nM | 101% | > 30000 nM |  | 
21 | COc1cc(NC(=O)c2nnn(-c3cc(Cl)ccc3OC)c2C)cc(C(C)(C)C)c1 [F5] | 40% | 0.14 µM | 480 ± 140 nM | 103% | 180 nM | 80% | > 30000 nM |  | 
22 | CCCCOc1cc(NC(=O)c2nnn(-c3cc(Cl)ccc3OC)c2C)cc(C(C)(C)C)c1 [F6] | 61% | 0.042 ± 0.011 µM | 670 ± 160 nM | 94% | 220 nM | 65% | > 30000 nM |  | 
23 | CCC(C)Oc1ccc(C(C)(C)C)cc1NC(=O)c1nnn(-c2cc(Cl)ccc2OC)c1C (centres unmarked) [F10] | 90% | 0.0076 ± 0.0011 µM | 19 nM | 79% | > 30000 nM |  | 360 ± 160 nM |  | (9 ± 1)%
24 | COc1ccc(C)cc1-n1nnc(C(=O)Nc2ccc(O)c(C(C)(C)C)c2)c1C [G2, N-(3-(tert-butyl)-4-hydroxyphenyl)-1-(2-methoxy-5-methylphenyl)-5-methyl-1H-1,2,3-triazole-4-carboxamide] | 75% | 1.93 ± 0.3 µM | 930 ± 110 nM | 108% | 480 nM | 115% | > 30000 nM |  | 
25 | COc1ccc(C)cc1-n1nnc(C(=O)Nc2ccc(OC)c(C(C)(C)C)c2)c1C [G3] | 71% | 1.08 ± 0.36 µM | 1700 nM | 105% | 820 nM | 111% | > 30000 nM |  | 
26 | COc1ccc(C)cc1-n1nnc(C(=O)Nc2cc(C(C)(C)C)cc(C(C)(C)C)c2)c1C [G4] | 74% | 0.1 µM | 200 nM | 104% | 74 ± 13 nM | 101% | > 30000 nM |  | 
27 | COc1ccc(C)cc1-n1nnc(C(=O)Nc2cc(N)cc(C(C)(C)C)c2)c1C [G5, N-(3-amino-5-(tert-butyl)phenyl)-1-(2-methoxy-5-methylphenyl)-5-methyl-1H-1,2,3-triazole-4-carboxamide] | 57% | 5.62 ± 0.49 µM | 7050 ± 3480 nM | 79% | 18900 ± 3740 nM | 47% | > 30000 nM |  | 
28 | CCCCNc1cc(NC(=O)c2nnn(-c3cc(C)ccc3OC)c2C)cc(C(C)(C)C)c1 [G6] | 87% | 0.25 µM | 150 nM | 104% | 44 ± 14 nM | 79% | > 30000 nM |  | 
29 | COc1ccc(C)cc1-n1nnc(C(=O)Nc2cc(O)cc(C(C)(C)C)c2)c1C [G7, N-(3-(tert-butyl)-5-hydroxyphenyl)-1-(2-methoxy-5-methylphenyl)-5-methyl-1H-1,2,3-triazole-4-carboxamide] | 81% | 2.29 ± 0.83 µM | 1310 ± 230 nM | 103% | 640 nM | 75% | > 30000 nM |  | 
30 | COc1cc(NC(=O)c2nnn(-c3cc(C)ccc3OC)c2C)cc(C(C)(C)C)c1 [G8] | 57% | 0.53 µM | 640 ± 100 nM | 109% | 200 nM | 115% | > 30000 nM |  | 
31 | CCCCOc1cc(NC(=O)c2nnn(-c3cc(C)ccc3OC)c2C)cc(C(C)(C)C)c1 [G9] | 62% | 0.21 µM | 400 nM | 105% | 150 ± 40 nM | 96% | > 30000 nM |  | 
32 | CCC(C)Oc1ccc(C(C)(C)C)cc1NC(=O)c1nnn(-c2cc(C)ccc2OC)c1C (centres unmarked) [G12] | 92% | 0.0076 ± 0.0031 µM | 9.4 nM | 73% | > 30000 nM |  | 18 nM |  | (17 ± 1)%
